{"source": "paper PMC9977294", "about": "“A parasitic fungus employs mutated eIF4A to survive on rocaglate-synthesizing Aglaia plants” (eLife, 2023)", "key": {"[1]": {"molecular_target": "Ophiocordyceps sp. BRM1 eIF4A iso4 Gly172His", "assay": "Fluorescence polarization assay, FAM-labeled [AG]10 RNA and recombinant eIF4A", "format": "binding", "conditions": "for Kd: [AG]10 10 nM, compound 50 µM, read-out: Kd between eIF4A protein and RNA", "procedure": "(§1) The fluorescence polarization assay was performed as previously described ([Chen et al., 2021]). […] After incubation at room temperature for 30 min, the mixture was transferred to a black 384-well microplate (Corning), and the fluorescence polarization was measured by an Infinite F-200 PRO (Tecan). Under ADP + Pi conditions, 1 mM ADP (Fujifilm Wako Chemicals) and 1 mM Na2HPO4 were used as substitutes for AMP-PNP. The data were fitted to the Hill equation to calculate Kd values and visualized by Igor Pro v8.01 (WaveMetrics)."}, "[2]": {"molecular_target": "Ophiocordyceps sp. BRM1 eIF4A iso4 Gly172Phe", "assay": "Fluorescence polarization assay, FAM-labeled [AG]10 RNA and recombinant eIF4A", "format": "binding", "conditions": "for Kd: [AG]10 10 nM, compound 50 µM, read-out: Kd between eIF4A protein and RNA; for fluorescence polarization, Mean / fluorescence polarization, replicates: [AG]10, ADP + Pi, RocA 50 µM", "procedure": "as §1"}, "[3]": {"conditions": "[AG]10, ADP + Pi, RocA 50 µM, protein 0.01 μM"}, "[4]": {"conditions": "[AG]10, ADP + Pi, RocA 50 µM, protein 0.05 μM"}, "[5]": {"conditions": "[AG]10, ADP + Pi, RocA 50 µM, protein 0.075 μM"}, "[6]": {"conditions": "[AG]10, ADP + Pi, RocA 50 µM, protein 0.1 μM"}, "[7]": {"conditions": "[AG]10, ADP + Pi, RocA 50 µM, protein 0.5 μM"}, "[8]": {"conditions": "[AG]10, ADP + Pi, RocA 50 µM, protein 0.75 μM"}, "[9]": {"conditions": "[AG]10, ADP + Pi, RocA 50 µM, protein 1 μM"}, "[10]": {"conditions": "[AG]10, ADP + Pi, RocA 50 µM, protein 25 μM"}, "[11]": {"conditions": "[AG]10, ADP + Pi, RocA 50 µM, protein 50 μM"}, "[12]": {"conditions": "[AG]10 RNA, AMP-PNP, RocA, protein concentration 0.01 μM"}, "[13]": {"conditions": "[AG]10 RNA, AMP-PNP, RocA, protein concentration 0.05 μM"}, "[14]": {"conditions": "[AG]10 RNA, AMP-PNP, RocA, protein concentration 0.075 μM"}, "[15]": {"conditions": "[AG]10 RNA, AMP-PNP, RocA, protein concentration 0.1 μM"}, "[16]": {"conditions": "[AG]10 RNA, AMP-PNP, RocA, protein concentration 0.5 μM"}, "[17]": {"conditions": "[AG]10 RNA, AMP-PNP, RocA, protein concentration 0.75 μM"}, "[18]": {"conditions": "[AG]10 RNA, AMP-PNP, RocA, protein concentration 1 μM"}, "[19]": {"conditions": "[AG]10 RNA, AMP-PNP, RocA, protein concentration 5 μM"}, "[20]": {"conditions": "[AG]10 RNA, AMP-PNP, RocA, protein concentration 7.5 μM"}, "[21]": {"conditions": "[AG]10 RNA, AMP-PNP, RocA, protein concentration 10 μM"}, "[22]": {"conditions": "[AG]10 RNA, AMP-PNP, RocA, protein concentration 25 μM"}, "[23]": {"conditions": "[AG]10 RNA, AMP-PNP, RocA, protein concentration 50 μM"}}, "note": "“And” between values parts separate entries of the source, which are not always exact repeats. Equal values may be shown once. Read-outs that look alike come from different tables or passages of the source."}
{"smiles": "COc1ccc([C@@]23Oc4cc(OC)cc(OC)c4[C@]2(O)[C@H](O)[C@H](C(=O)N(C)C)[C@H]3c2ccccc2)cc1", "note": "[RocA, rocaglamide A]", "values": [{"measurement": "Kd", "setting": "[1]; ADP + Pi (1 mM each)", "value": "3900 ± 980", "unit": "nM"}, {"measurement": "Kd", "setting": "[1]; AMP-PNP 1 mM", "value": "51 ± 9.1", "unit": "nM"}, {"measurement": "fluorescence polarization, Mean", "setting": "[1]; [3]", "value": -0.1448}, {"measurement": "fluorescence polarization, replicates", "setting": "[1]; [3]", "value": "-0.04098 and -0.2377"}, {"measurement": "fluorescence polarization, Mean", "setting": "[1]; [4]", "value": -0.08743}, {"measurement": "fluorescence polarization, replicates", "setting": "[1]; [4]", "value": "-0.08197 and -0.02459"}, {"measurement": "fluorescence polarization, Mean", "setting": "[1]; [5]", "value": -0.06284}, {"measurement": "fluorescence polarization, replicates", "setting": "[1]; [5]", "value": "-0.05738 and -0.123 and -0.008197"}, {"measurement": "fluorescence polarization, Mean", "setting": "[1]; [6]", "value": -0.07923}, {"measurement": "fluorescence polarization, replicates", "setting": "[1]; [6]", "value": "-0.05738 and -0.08197 and -0.09836"}, {"measurement": "fluorescence polarization, Mean", "setting": "[1]; [7]", "value": 0.265}, {"measurement": "fluorescence polarization, replicates", "setting": "[1]; [7]", "value": "0.2459 and 0.2541 and 0.2951"}, {"measurement": "fluorescence polarization, Mean", "setting": "[1]; [8]", "value": 0.2814}, {"measurement": "fluorescence polarization, replicates", "setting": "[1]; [8]", "value": "0.3197 and 0.3443 and 0.1803"}, {"measurement": "fluorescence polarization, Mean", "setting": "[1]; [9]", "value": 0.4809}, {"measurement": "fluorescence polarization, replicates", "setting": "[1]; [9]", "value": "0.4754 and 0.5 and 0.4672"}, {"measurement": "fluorescence polarization, replicates", "setting": "[1]; [AG]10, ADP + Pi, RocA 50 µM, protein 5 μM", "value": "0.459 and 0.6639"}, {"measurement": "fluorescence polarization, Mean", "setting": "[1]; [AG]10, ADP + Pi, RocA 50 µM, protein 7.5 μM", "value": 0.7978}, {"measurement": "fluorescence polarization, replicates", "setting": "[1]; [AG]10, ADP + Pi, RocA 50 µM, protein 10 μM", "value": "0.5246 and 0.5902 and 0.582"}, {"measurement": "fluorescence polarization, Mean", "setting": "[1]; [10]", "value": 0.8743}, {"measurement": "fluorescence polarization, replicates", "setting": "[1]; [10]", "value": "0.8197 and 0.877 and 0.9262"}, {"measurement": "fluorescence polarization, Mean", "setting": "[1]; [11]", "value": 1.003}, {"measurement": "fluorescence polarization, replicates", "setting": "[1]; [11]", "value": "1.033 and 1.0082"}, {"measurement": "Fluorescence polarization, Replicate 1-3", "setting": "[1]; [12]", "value": "0.06831 and 0.1421 and 0.06011"}, {"measurement": "fluorescence polarization, Mean", "setting": "[1]; [12]", "value": 0.09016}, {"measurement": "Fluorescence polarization, Replicate 1-3", "setting": "[1]; [13]", "value": "0.5929 and 0.5109 and 0.4781"}, {"measurement": "fluorescence polarization, Mean", "setting": "[1]; [13]", "value": 0.5273}, {"measurement": "Fluorescence polarization, Replicate 1-3", "setting": "[1]; [14]", "value": "0.5519 and 0.5601 (2×)"}, {"measurement": "fluorescence polarization, Mean", "setting": "[1]; [14]", "value": 0.5574}, {"measurement": "Fluorescence polarization, Replicate 1-3", "setting": "[1]; [15]", "value": "0.6093 and 0.6749 and 0.5519"}, {"measurement": "fluorescence polarization, Mean", "setting": "[1]; [15]", "value": 0.612}, {"measurement": "Fluorescence polarization, Replicate 1-3", "setting": "[1]; [16]", "value": "0.8716 (2×) and 0.806"}, {"measurement": "fluorescence polarization, Mean", "setting": "[1]; [16]", "value": 0.8497}, {"measurement": "Fluorescence polarization, Replicate 1-3", "setting": "[1]; [17]", "value": "0.8798 and 0.8634 and 0.9126"}, {"measurement": "fluorescence polarization, Mean", "setting": "[1]; [17]", "value": 0.8852}, {"measurement": "Fluorescence polarization, Replicate 1-3", "setting": "[1]; [18]", "value": "0.9536 and 0.9372 and 0.8716"}, {"measurement": "fluorescence polarization, Mean", "setting": "[1]; [18]", "value": 0.9208}, {"measurement": "Fluorescence polarization, Replicate 1-3", "setting": "[1]; [19]", "value": "0.9372 (2×) and 0.9044"}, {"measurement": "fluorescence polarization, Mean", "setting": "[1]; [19]", "value": 0.9262}, {"measurement": "Fluorescence polarization, Replicate 1-3", "setting": "[1]; [20]", "value": "0.8716 and 0.9126 and 0.9044"}, {"measurement": "fluorescence polarization, Mean", "setting": "[1]; [20]", "value": 0.8962}, {"measurement": "Fluorescence polarization, Replicate 1-3", "setting": "[1]; [21]", "value": "0.9536 and 0.929 and 0.8552"}, {"measurement": "fluorescence polarization, Mean", "setting": "[1]; [21]", "value": 0.9126}, {"measurement": "Fluorescence polarization, Replicate 1-3", "setting": "[1]; [22]", "value": "0.9372 and 1.027 and 0.9536"}, {"measurement": "fluorescence polarization, Mean", "setting": "[1]; [22]", "value": 0.9727}, {"measurement": "Fluorescence polarization, Replicate 1-3", "setting": "[1]; [23]", "value": "1.044 (2×) and 1.027"}, {"measurement": "fluorescence polarization, Mean", "setting": "[1]; [23]", "value": 1.038}, {"measurement": "Kd", "setting": "[2]; ADP + Pi (1 mM each)", "value": "270 ± 50", "unit": "nM"}, {"measurement": "Kd", "setting": "[2]; AMP-PNP 1 mM", "value": "53 ± 23", "unit": "nM"}, {"measurement": "fluorescence polarization, Mean", "setting": "[2]; protein 0.01 μM", "value": -0.0929}, {"measurement": "fluorescence polarization, replicates", "setting": "[2]; protein 0.01 μM", "value": -0.1366}, {"measurement": "fluorescence polarization, Mean", "setting": "[2]; protein 0.05 μM", "value": -0.112}, {"measurement": "fluorescence polarization, replicates", "setting": "[2]; protein 0.05 μM", "value": -0.1366}, {"measurement": "fluorescence polarization, Mean", "setting": "[2]; protein 0.075 μM", "value": -0.05465}, {"measurement": "fluorescence polarization, replicates", "setting": "[2]; protein 0.075 μM", "value": -0.005465}, {"measurement": "fluorescence polarization, Mean", "setting": "[2]; protein 0.1 μM", "value": 0.05191}, {"measurement": "fluorescence polarization, replicates", "setting": "[2]; protein 0.1 μM", "value": "0.0929 and 0.002732"}, {"measurement": "fluorescence polarization, Mean", "setting": "[2]; protein 0.5 μM", "value": 0.3142}, {"measurement": "fluorescence polarization, replicates", "setting": "[2]; protein 0.5 μM", "value": "0.3142 and 0.2486"}, {"measurement": "fluorescence polarization, Mean", "setting": "[2]; protein 0.75 μM", "value": 0.3661}, {"measurement": "fluorescence polarization, replicates", "setting": "[2]; protein 0.75 μM", "value": "0.429 and 0.306"}, {"measurement": "fluorescence polarization, Mean", "setting": "[2]; protein 1 μM", "value": 0.4044}, {"measurement": "fluorescence polarization, replicates", "setting": "[2]; protein 1 μM", "value": "0.3552 and 0.429 (2×)"}, {"measurement": "fluorescence polarization, Mean", "setting": "[2]; protein 5 μM", "value": 0.4399}, {"measurement": "fluorescence polarization, replicates", "setting": "[2]; protein 5 μM", "value": "0.4781 and 0.4208 (2×)"}, {"measurement": "fluorescence polarization, Mean", "setting": "[2]; protein 7.5 μM", "value": 0.5328}, {"measurement": "fluorescence polarization, replicates", "setting": "[2]; protein 7.5 μM", "value": "0.5519 and 0.5027"}, {"measurement": "fluorescence polarization, Mean", "setting": "[2]; protein 10 μM", "value": 0.5055}, {"measurement": "fluorescence polarization, replicates", "setting": "[2]; protein 10 μM", "value": "0.4372 and 0.5109 and 0.5683"}, {"measurement": "fluorescence polarization, Mean", "setting": "[2]; protein 25 μM", "value": 0.5301}, {"measurement": "fluorescence polarization, replicates", "setting": "[2]; protein 25 μM", "value": 0.4863}]}
